Results on 19 compounds are retold here after US5919811A, “3-Substituted-indole-2-carboxylic acid derivatives as excitatory amino acid antagonists” (Glaxo Wellcome S.p.A., priority 1995, dated 1999).

For orientation: inhibition in vivo means the drop in the measured response relative to a control, in per cent. A higher inhibition in vivo goes with a strong effect. As usually defined, the Ki is a measure of affinity in units of concentration, obtained from inhibition or displacement. Low readings indicate tighter binding, high ones weaker binding.

Structures can show the parent of a compound that is named as a salt.

In assay [1] the test system is NMDA induced convulsions. As to the kind of experiment: inhibition of NMDA induced convulsions in the mouse (procedure of Chiamulera C et al). Conditions: iv, 0.1 mg/kg I.V., generalized seizures induced by intracerebroventricular injection of NMDA in mice. In kind it is in vivo. The protocol:
The ability of compounds of the invention to inhibit NMDA induced convulsions in the mouse was determined using the procedure of Chiamulera C et al. Psychpharmacology 1990, 102,-551-552. In this test the ability of the compound to inhibit the generalized seizures induced by an intracerebroventricular injection of NMDA in mice was examined. Thus the % inhibition of the NMDA induced convulsions when a compound of the invention was given the dose of 0.1 mg/kg I.V. was determined and representative results obtained for compounds of the invention are given in the following table.

For assay [2], the target named is T1, strychnine insensitive glycine binding site located on the NMDA receptor complex (Rattus norvegicus, UniProt P35439).
T1 construct: from tissue; host or cells: central nervous system membranes, rat
Put plainly: affinity for strychnine insensitive glycine binding site located on the NMDA receptor complex (procedure of Kishimoto H. et al). The protocol:
The potent and selective action of the compound of the invention at the strychnine- insensitive glycine binding site present on the NMDA receptor complex may be readily determined using conventional test procedures. Thus the ability to bind at the strychnine insensitive glycine binding site was determined using the procedure of Kishimoto H et al. J Neurochem 1981, 37 1015-1024. The selectivity of the action of compounds of the invention for the strychnine insensitive glycine site was confirmed in studies at other ionotropic known excitatory amino acid receptors.
The affinity of a compound of the invention for strychnine insensitive glycine binding site located on the NMDA receptor complex was determined using the procedure of Kishimoto H. et al J. Neurochem 1981, 37, 1015-1024. The pKi with representative compounds of the invention are given in […]

In assay [1], `CCNC(=S)NCc1ccc(NC(=O)/C=C/c2c(C(=O)O)[nH]c3cc(Cl)cc(Cl)c23)cc1` [Example 14, (E)4,6-dichloro-3-[2'-(4'-ethylthioureidomethylphenylcarbamoyl)ethenyl]-1-H-indole 2-carboxylic acid] displayed an inhibition in vivo at 0.1 mg/kg of 30%. In assay [2], `O=C(/C=C/c1c(C(=O)O)[nH]c2cc(Cl)cc(Cl)c12)Nc1ccc(CNC(=O)Nc2ccccc2)cc1` [Example 16, (E)4,6-dichloro-3-[2'-(4'-phenylureidomethylphenylcarbamoyl)ethenyl]-1-H-indole 2-carboxylic acid] had a Ki of 20 nM. Also, in assay [1], the inhibition in vivo at 0.1 mg/kg is 30%.

Consider `NC(=O)NCc1cccc(NC(=O)/C=C/c2c(C(=O)O)[nH]c3cc(Cl)cc(Cl)c23)c1` [Example 34], for which, in assay [2], the Ki is 2.45 nM. The compound `CCOC(=O)CNC(=O)NCc1ccc(NC(=O)/C=C/c2c(C(=O)OCC)[nH]c3cc(Cl)cc(Cl)c23)cc1` [Example 43] displayed an inhibition in vivo at 0.1 mg/kg in assay [1] of 40%.

Regarding `O=C(/C=C/c1c(C(=O)O)[nH]c2cc(Cl)cc(Cl)c12)Nc1ccc(NC(=O)NC2CCOCC2)cc1` [Example 52, 4,6-dichloro-3-[(E)-2'-(4'-(-tetrahydropyran-4"-yl)-ureidophenylcarbamoyl)ethenyl]-1-H-indole-2-carboxylic acid sodium salt], in assay [2], the affinity, expressed as Ki, was 5.01 nM. Take `NC(=O)NCc1ccc(NC(=O)/C=C/c2c(C(=O)O)[nH]c3cc(Cl)cc(Cl)c23)cc1` [Example 8, (E)4,6-dichloro-3-[2'-(4'-ureidomethylphenylcarbamoyl)ethenyl]-1-H-indole2-carboxylic acid]: in assay [2], the affinity corresponds to a Ki of 2.51 nM. `O=C(/C=C/c1c(C(=O)O)[nH]c2cc(Cl)cc(Cl)c12)Nc1ccc(CNC(=O)NC2CCOCC2)cc1` [Example 40, sodium salt] returned an inhibition in vivo at 0.1 mg/kg in assay [1] of 40%. In assay [2], `CN(C)C(=O)Nc1ccc(NC(=O)/C=C/c2c(C(=O)O)[nH]c3cc(Cl)cc(Cl)c23)cc1` [Example 27, (E)-4,6-dichloro-3-[2'-(4'-dimethyl-ureido-phenylcarbamoyl)ethenyl]-1H-indole-2-carboxylic acid] showed an inhibitory constant (Ki) of 3.89 nM. In assay [1], `NC(=O)NCc1ccc(NC(=O)/C=C/c2c(C(=O)O)[nH]c3cc(Cl)cc(Cl)c23)cc1` [Example 9, (E)4,6-dichloro-3-[2'-(4'-ureidomethylphenylcarbamoyl)ethenyl]-1-H-indole 2-carboxylic acid,sodium salt] yielded an inhibition in vivo at 0.1 mg/kg of 60%.

In turn, `NC(=O)Nc1ccc(NC(=O)/C=C/c2c(C(=O)O)[nH]c3cc(Cl)cc(Cl)c23)cc1` [Example 21, 4,6-dichloro-3-[(E)-2'-(4'-ureidophenylcarbamoyl)ethenyl]-1-H-indole2-carboxylic acid,] had a Ki in assay [2] of 1.82 nM. In turn, `O=C(/C=C/c1c(C(=O)O)[nH]c2cc(Cl)cc(Cl)c12)Nc1ccc(CNC(=O)NC2CCOCC2)cc1` [Example 39] had a Ki in assay [2] of 9.12 nM.

In assay [2], `O=C(/C=C/c1c(C(=O)O)[nH]c2cc(Cl)cc(Cl)c12)Nc1ccc(NC(=O)NC2CC2)cc1` [Example 50, 4,6-dichloro-3-[(E)-2'-(4'-cyclopropylureidophenylcarbamoyl)ethenyl]-1-H-indole-2-carboxylic acid sodium salt] had a Ki of 3.16 nM.

`O=C(/C=C/c1c(C(=O)O)[nH]c2cc(Cl)cc(Cl)c12)Nc1ccc(NC(=O)Nc2cccnc2)cc1` [Example 51, 4,6-dichloro-3-[(E)-2'-(4'-nicotin-3-ylureidophenylcarbamoyl)ethenyl]-1-H-indole2-carboxylic acid] had a Ki in assay [2] of 3.89 nM. `O=C(O)CNC(=O)NCc1ccc(NC(=O)/C=C/c2c(C(=O)O)[nH]c3cc(Cl)cc(Cl)c23)cc1` [Example 44, (E)-4,6-dichloro-3-[2'-(4'-carboxymethylureido-methyl-phenylcarbamoyl)ethenyl]-1H-indole-2-carboxylic acid] came in with an inhibition in vivo at 0.1 mg/kg in assay [1] of 40%.

With `O=C(/C=C/c1c(C(=O)O)[nH]c2cc(Cl)cc(Cl)c12)Nc1ccc(NC(=O)Nc2ccccc2)cc1` [Example 24, (E)-4,6-dichloro-3-[2'-(4'-phenyl-ureido-phenylcarbamoyl)ethenyl]-1H-indole-2-carboxylic acid], the Ki in assay [2] was 39.8 nM. In assay [1], `COc1ccc(NC(=O)NCc2ccc(NC(=O)/C=C/c3c(C(=O)O)[nH]c4cc(Cl)cc(Cl)c34)cc2)cc1` [Example 37, (E)-4,6-dichloro-3-{2'-[4'-(4"-methoxy-phenyl-ureidomethyl)-phenylcarbamoyl]ethenyl}-1H-indole-2-carboxylic acid] registered an inhibition in vivo at 0.1 mg/kg of 50%.

For the compound `NC(=O)NCCc1ccc(NC(=O)/C=C/c2c(C(=O)O)[nH]c3cc(Cl)cc(Cl)c23)cc1` [Example 19, 4,6-dichloro-3-[(E)-2'-(4'-ureidoethylphenylcarbamoyl)ethenyl]-1-H-indole 2-carboxylic acid,sodium salt], the inhibition in vivo at 0.1 mg/kg in assay [1] stood at 30%. The same measure, in the same setting: the result for `CCNC(=O)NCc1ccc(NC(=O)/C=C/c2c(C(=O)O)[nH]c3cc(Cl)cc(Cl)c23)cc1` [Example 12, (E)4,6-dichloro-3-[2'-(4'-ethylureidomethylphenylcarbamoyl)ethenyl]-1-H-indole 2-carboxylic acid,sodium salt] reads 50%; that for `O=C(/C=C/c1c(C(=O)O)[nH]c2cc(Cl)cc(Cl)c12)Nc1ccc(CNC(=O)NC2CC2)cc1` [Example 31, (E)-4,6-dichloro-3-[-2'-(4'-cyclopropyl-ureido-methyl-phenylcarbamoyl)vinyl]-1H-indole-2-carboxylic acid sodium salt], 40%.
